Experimental data published in patent US12528840B2, “Transcription active complex targeting cancer drug from viral protein sequence” (The Regents of the University of California, priority 2020, dated 2026).

Assays:
Assay type in all cases: cell-based
MYC = experiment: Intracellular staining of MYC in LPS-activated THP-1 cells; conditions: THP-1, LPS 100 ng/ml, 16 μM, 24 hours
Excerpt: FIG. 16. Effect of MBK50 on MYC and IRF4 expression in LPS-activated monocytic leukemia cell line THP-1 cells. […] MYC and IRF4 expression levels were examined by intracellular staining of MYC and IRF4 with isotype control staining followed by flow cytometry. FIG. 16(a) A scheme of the experimental procedure. FIG. 16(b) A representative histogram overlay for the MYC expression in THP-1 cells treated with MBK50, mutant control peptide or PBS, with isotype control. The average mean fluorescent intensity (MFI) for MYC expression (n=3) for each treatment is shown in the right panel. FIG. 16(c) A representative histogram overlay for the IRF4 expression (red) in THP-1 cells treated with MBK50, mutant control peptide, or PBS, with isotype control (blue). The average MFI for IRF4 expression for each treatment is shown in the right panel.
MYC is important for monocytic cell proliferation, especially upon LPS stimulation. […] MYC and IRF4 expression levels were examined by intracellular staining of MYC and IRF4 with isotype control staining followed by flow cytometry (FIG. 16a). […] Also, the percentage of THP-1 cells with reduced IRF4 expression was increased by MBK50 treatment compared to mutant control peptide or PBS treatment.

[1] = test system: Kaposi's sarcoma-associated herpesvirus (KSHV); experiment: Total RNA-sequencing of peptide-resistant KSHV-infected B-cells; conditions: continued peptide incubation, resistant cells vs parental cells
Protocol: FIG. 10. Peptide long-term treatment changes B-cell phenotype. RNA-seq was performed after generating peptide-drug resistant cell population.
The peptide sequence is based on KSHV transactivator protein sequence, and it is expected that the peptide will compete with viral transactivator protein for recruitment of cellular transactivation complex. We continued to incubate with peptide drug in KSHV-naturally infected B-cells and generated resistant cell line (RC). The resistant cells were then used to identify putative drug targets by comparing parental cells with total RNA-sequencing.

[2] = test system: human peripheral blood mononuclear cells (PBMCs); experiment: Viability by flow cytometry after live/dead staining, PBMC versus cancer cell lines; conditions: healthy donor PBMCs vs e.g. THP-1 and BCBL-1
Protocol: FIG. 6. Viral and cellular responses to K-Rta peptide; identification of VGN50. (a) Protein sequence alignment. FIG. 6(A) The effect of VGN50 on various cancer cell types. MTT assays were performed with the indicated cell lines treated with various VGN50 concentrations. The O.D. of mock-treated samples were set as 100%, and O.D. from detergent treated cells were set as 0%. Percentage viability+/−SD was calculated for each treatment (N=3 samples/treatment). FIG. 6(B) Viability assay with flow cytometry. Cell viability was measured in triplicate with live/dead staining and the cell killing effects on cancer cells was compared with normal peripheral blood mononuclear cells (PBMC) from three healthy donors. Results are presented as percentage viability+/−SD deviation (N=3 samples/group).
As shown in FIG. 6(a), multiple cancer cell lines were used for MTT assay to evaluate cancer cell killing efficacies of the MBK50 peptide at different concentrations (cell variability studies). […] Importantly, human peripheral blood mononuclear cells (PBMCs) from healthy donors were approximately 10-fold less sensitive to MBK-mediated killing compared to myeloid and lymphoid cancer cell lines (e.g., THP-1 and BCBL-1) as assessed by flow cytometry after live/dead staining (FIG. 6(b)). […]

LSSILQGLYQLDT [MBK50]
MYC expression (MFI) (MYC): significantly reduced | latently infected KSHV gene expression [1]: significantly down-regulated | lower sensitivity of PBMCs to killing compared to myeloid and lymphoid cancer cell lines [2]: approximately 10 fold
